Results: patent US20230091336A1, “CANNABINOID COMPOSITIONS” (priority 2020, published 2023)
Marks after values point to notes of the source that are not given here.

Tests used:
[1] = system: SOCE in Jurkat T cells; test: SOCE Fura-2 bioassay in Jurkat cells; type: cell-based, human; details: for effect on SOCE Ca^2+ signals, pure compounds: 10 μM, 1 μM thapsigargin, FIG. 7A, 7C; for IC50: Homo sapiens, read-out: IC50 SOCE, purified cannabinoids, Jurkat, Table 5
[2] = system: cisplatin-induced nephritis mice; test: Cisplatin-induced kidney damage mouse model; type: in vivo; details: for body-weight loss in cisplatin-induced nephritis mice / kidney weight left / kidney weight right / urine / water intake / body weight: 10 mg/kg i.p.; for body-weight loss in cisplatin-induced nephritis mice: FIG. 25; for creatinine and BUN levels, treatment group vs vehicle group: cisplatin model, first statement of b267; for kidney weight left / kidney weight right / urine / water intake / body weight: cisplatin-induced mice at day 3; for body weight: cisplatin 16 mg/kg, n = 4-5; for kidney weight normalized to body weight / magnesium regulation (serum and urine magnesium) vs cisplatin vehicle group: day 3; for kidney weight normalized to body weight: FIG. 26; for magnesium regulation (serum and urine magnesium) vs cisplatin vehicle group: FIGS. 27A-27B; for kidney function as determined by blood urea nitrogen (BUN): day 3 serum, FIG. 28; for amount of PARP-1 protein in kidney (Western blot): vs cis(+) vehicle, FIG. 30B
Method: CBGA and/or CBD was injected intraperitoneally (i.p) 2 hours into C57BL/6 male mice (8 wks weighing 23-30 g) before cisplatin injection according to dosage schemes outlined below, and cisplatin-induced kidney damage was compared to normal kidneys. Sham treatment without cisplatin cis(−) was used as a negative control and cisplatin injection cis(+) without cannabinoid extract treatment was used as a positive vehicle control. Mice in group 1 (“vehicle”) received treatment with cisplatin (16 mg/kg body weight, lmg/mL in 0.90% NaCl, i.p) following intraperitoneal injection of vehicle control solution (5 mL/kg body weight) comprising 5% ethanol and 5% Tween80 in 0.9% NaCl. Mice in group 2 (“CBGA”) received treatment with cisplatin (16 mg/kg body weight, 1 mg/mL in 0.9% NaCl, i.p) following injection of CBGA (10 mg/kg body weight) 2 mg/mL in 5% ethanol, 5% Tween80 and 0.9% NaCl Mice in group 3 (“CBD”) received treatment with cisplatin (16 mg/kg body weight, 1 mg/mL in 0.9% NaCl, i.p) following intraperitoneal injection of CBD (10 mg/kg body weight) 2 mg/mL in 5% ethanol, 5% Tween80 and 0.9% NaCl. Mice in group 4 (“CBGA+CBD”) received treatment with cisplatin (16 mg/kg body weight, 1 mg/mL in 0.9% NaCl, i.p) following intraperitoneal injection of CBGA (10 mg/kg body weight)+CBD (10 mg/kg body weight) 2 mg/mL each in 5% ethanol, 5% Tween80 and 0.9% NaCl. Mice in group 5 (“cis(−)”) received sham injections comprising 0.9% NaCl (16 mL/kg body weight) following intraperitoneal injection of vehicle control solution (5 mL/kg body weight) 5% ethanol, 5% Tween80 and 0.9% NaCl.
Mice were euthanized at Day 3 following cisplatin injection, and kidneys were harvested and stored for processing and analysis.
Blood and urine were collected and analyzed to check kidney function. Blood was collected following euthanization, and urine was collected for 24 hrs before euthanasia in metabolic cages. […] Creatinine levels and BUN or urea value were measured from blood serum and urine samples to evaluate the kidney function. […] FIG. 29A-29B show measured creatinine levels in cisplatin-induced nephrotic mice at day 3. Urine was collected using a metabolic cage for 24 hours before sacrifice. Creatinine was assessed by an assay kit (n=4-5). Creatinine concentration in serum (FIG. 29A) and creatinine in urine (FIG. 29B) were maintained in cannabinoid-treated mice. *p<0.05 vs. cis(+) vehicle treatment group.
PARP-1 in cisplatin- and cannabinoid-treated kidney samples was evaluated by Western blot quantification. PARP activity increases to repair DNA damage, while it induces apoptosis when the cells have severe damage and can not be repaired in cisplatin-induced inflammatory kidneys. […] (FIG. 30A) PARP-1 in kidney tissue was evaluated by quantification of Western blot results, wherein α-tubulin was used as an internal control to normalize PARP-1 band quantification. […] PARP-1 was reduced in mice treated with cisplatin and cannabinoids, relative to mice treated with cisplatin and “vehicle” solution (FIG. 30B). Densitometric analysis was performed from the result of western blotting and presented as a bar graph (n=4-5). […] The rightmost bar represents the sham treatment (“cis(−)”), wherein mice received vehicle injections instead of both cisplatin and cannabinoid extracts as a negative control. **p<0.01 vs. cis(+) vehicle treatment group. CBGA reduced the amount of PARP-1 protein detected in cisplatin-induced nephritis mice. […]

[3] = system: SOCE in U937 human monocytes; test: SOCE Fura-2 bioassay in U937 cells; details: Homo sapiens, U-937, read-out: IC50 SOCE, purified cannabinoids, U937; Table 5
Method: (§2) Briefly, SOCE inhibition experiments were performed as described in Example 8, using each of the hemp extracts listed below and in Tables 6A and 6B at six concentrations each in each of the five cell types listed above to obtain dose response curves, as shown in FIGS. 11A-11SS. […] All data are averages of three independent runs±SEM. […] Hemp extracts used in FIGS. 11A-11SS are: Sour Space Candy (SSC), Hawaiian Haze (HH), Special Sauce (SS), Suver Haze (SH), White CBG (WCBG), Elektra (ELEK), Cherry Wine (CW), Lifter (LIF), Grape Soda (GS).

[4] = system: SOCE in THP-1 human monocytes; test: SOCE Fura-2 bioassay in THP-1 cells; details: for IC50: Homo sapiens, THP-1, read-out: IC50 SOCE, purified cannabinoids
[5] = system: SOCE in RBL-2H3 rat mast cells; test: SOCE Fura-2 bioassay in RBL-2H3 cells; details: Rattus norvegicus, RBL-2H3, read-out: IC50 SOCE, purified cannabinoids, RBL-2H3; Table 5
Method: as §2

[6] = system: SOCE-mediated increases in intracellular Ca^2+; test: SOCE dose-response of CBGA (FIG. 15); type: cell-based; details: read-out: IC50 inhibition of SOCE-mediated increases in intracellular Ca^2+
Source text: (§1) Data from dose-response curves for the inhibition of TRPM7 currents (dark gray symbols) obtained in experiments shown in FIG. 14 and SOCE-mediated increases in intracellular Ca^2+ (light gray symbols) are shown in FIG. 15.

[7] = target: T1, TRPM7 (Homo sapiens, UniProt Q96QT4); test: Whole-cell patch clamp of TRPM7 outward current in Jurkat cells; type: cell-based; design: endogenous in cells; host or cells: Jurkat; details: 10 μM
Method: Inward CRAC currents were induced at −120 mV (gray trace) and outward currents at +40 mV (black trace, where CRAC currents reverse and are essentially absent). At the +40 mV voltage potential, TRPM7 channels produce monovalent outward currents. Perfusion of 50 μM IP3 activates ICRAC at −120 mV as above and the removal of intracellular ATP slowly activates TRPM7 current at +40 mV. Application of 10 μM CBGA blocks both outward TRPM7 and inward CRAC currents (see FIG. 13, black and gray traces, respectively). Without being bound by theory, CBGA may also block TRPM7's kinase activity, similar to other TRPM7 blockers such as NS8593.
Target sequence in this assay (Q96QT4 whole entry, the tested form may be a part): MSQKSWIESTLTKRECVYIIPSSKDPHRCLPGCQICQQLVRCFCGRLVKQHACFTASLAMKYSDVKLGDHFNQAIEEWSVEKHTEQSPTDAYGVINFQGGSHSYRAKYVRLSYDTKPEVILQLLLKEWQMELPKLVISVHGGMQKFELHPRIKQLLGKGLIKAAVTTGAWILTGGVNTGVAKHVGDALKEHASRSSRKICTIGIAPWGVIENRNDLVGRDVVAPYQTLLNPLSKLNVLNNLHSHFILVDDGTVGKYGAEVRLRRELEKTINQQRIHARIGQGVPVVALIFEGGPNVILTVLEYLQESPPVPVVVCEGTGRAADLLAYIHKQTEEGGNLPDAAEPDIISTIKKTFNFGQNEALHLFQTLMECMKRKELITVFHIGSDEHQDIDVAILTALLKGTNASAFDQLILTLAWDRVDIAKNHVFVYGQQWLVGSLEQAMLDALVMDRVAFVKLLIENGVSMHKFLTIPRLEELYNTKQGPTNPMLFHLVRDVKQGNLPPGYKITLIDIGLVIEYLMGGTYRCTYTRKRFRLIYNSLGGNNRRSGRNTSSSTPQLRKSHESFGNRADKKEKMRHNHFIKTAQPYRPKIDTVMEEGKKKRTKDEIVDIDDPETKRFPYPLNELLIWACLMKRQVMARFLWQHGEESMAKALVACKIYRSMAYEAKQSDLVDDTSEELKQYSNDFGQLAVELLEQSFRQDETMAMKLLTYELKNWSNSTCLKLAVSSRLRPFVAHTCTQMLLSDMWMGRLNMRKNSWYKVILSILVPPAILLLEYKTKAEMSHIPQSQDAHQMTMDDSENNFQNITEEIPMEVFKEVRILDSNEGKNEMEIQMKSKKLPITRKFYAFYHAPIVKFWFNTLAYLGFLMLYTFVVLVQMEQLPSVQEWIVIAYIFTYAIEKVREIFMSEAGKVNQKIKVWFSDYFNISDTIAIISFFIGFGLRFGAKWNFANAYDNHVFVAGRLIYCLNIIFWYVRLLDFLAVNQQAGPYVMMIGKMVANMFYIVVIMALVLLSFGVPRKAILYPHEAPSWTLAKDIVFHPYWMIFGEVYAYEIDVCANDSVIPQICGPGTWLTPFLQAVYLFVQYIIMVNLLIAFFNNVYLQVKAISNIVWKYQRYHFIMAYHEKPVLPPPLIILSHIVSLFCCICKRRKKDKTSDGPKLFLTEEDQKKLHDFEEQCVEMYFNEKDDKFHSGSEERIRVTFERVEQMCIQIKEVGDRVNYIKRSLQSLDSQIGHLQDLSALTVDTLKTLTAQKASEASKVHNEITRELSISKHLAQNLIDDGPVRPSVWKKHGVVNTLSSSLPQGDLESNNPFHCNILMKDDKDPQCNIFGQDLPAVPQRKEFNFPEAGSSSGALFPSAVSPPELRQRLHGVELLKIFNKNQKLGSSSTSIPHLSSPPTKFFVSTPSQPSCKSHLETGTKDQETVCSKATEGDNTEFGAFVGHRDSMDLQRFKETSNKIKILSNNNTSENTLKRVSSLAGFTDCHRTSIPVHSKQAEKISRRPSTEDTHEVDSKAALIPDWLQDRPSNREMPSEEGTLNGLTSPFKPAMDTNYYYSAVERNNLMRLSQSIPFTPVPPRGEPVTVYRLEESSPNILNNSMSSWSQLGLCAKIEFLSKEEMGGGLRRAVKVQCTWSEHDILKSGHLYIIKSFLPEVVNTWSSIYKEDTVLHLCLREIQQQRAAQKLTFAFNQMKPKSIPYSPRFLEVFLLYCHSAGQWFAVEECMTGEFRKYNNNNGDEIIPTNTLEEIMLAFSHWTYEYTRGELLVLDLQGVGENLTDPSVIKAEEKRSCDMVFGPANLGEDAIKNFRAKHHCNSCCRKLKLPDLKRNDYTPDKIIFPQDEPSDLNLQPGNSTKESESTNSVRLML

[8] = target: T1, TRPM7; test: Whole-cell patch clamp of TRPM7 over-expressed in HEK293 cells; type: cell-based; design: expressed in transfected cells; host or cells: HEK293; details: HEK293 over-expressing TRPM7
Method: Activation of TRPM7 over-expressed in HEK293 cells by perfusing the cells with intracellular solution containing 0 ATP and 0 Mg^2+, resulting in fast and maximal activation of TRPM7 outward currents at +40 mV is shown in FIG. 14.
as §1
Target sequence in this assay (Q96QT4 whole entry, species assumed, the tested form may be a part): as the sequence (Q96QT4 whole entry, the tested form may be a part) above

Structure (SMILES)	effect on SOCE Ca^2+ signals, pure compounds [1]	IC50 [1]	body-weight loss in cisplatin-induced nephritis mice [2]	creatinine and BUN levels, treatment group vs vehicle group [2]	kidney weight left [2]	kidney weight right [2]	urine [2]	water intake [2]	body weight [2]	kidney weight normalized to body weight [2]	magnesium regulation (serum and urine magnesium) vs cisplatin vehicle group [2]	kidney function as determined by blood urea nitrogen (BUN) [2]	amount of PARP-1 protein in kidney (Western blot) [2]	IC50 [3]	IC50 [4]	IC50 [5]	also measured
C=C(C)[C@@H]1CCC(C)=C[C@H]1c1c(O)cc(CCCCC)cc1O [CBD, (1′R,2′R)-5′-methyl-4-penlyl-2′-(prop-1-en-2-yl)-1′,2′,3′,4′-tetrahydro-[1,1′-biphenyl]-2,6-diol]	low to no effects	7.42 µM	didn't affect	did not change	121 ± 5.0** mg	132 ± 6.8 mg	1.042 ± 0.131 mL	1.79 ± 0.37** mL	20.23 ± 0.82* g	No significant difference	protected magnesium regulation	maintained kidney function	reduced	> 50 µM	> 50 µM	> 50 µM	combinatory effect on SOCE inhibition when paired with CBGA (isobolographic analysis) ([1]; pairs expected to inhibit 50%, FIGS. 10A-10T): Simple additive; combinatory effect when paired with 2.2 μM CBGA ([4]; THP-1, 10 μM cannabinoid + 2.2 μM CBGA, FIG. 10Z): sub-additive
CCCCCc1cc(O)c(C/C=C(\C)CCC=C(C)C)c(O)c1C(=O)O [CBGA, (E)-3-(3,7-dimethylocta-2,6-dien-1-yl)-2,4-dihydroxy-6-pentylbenzoic acid]	fully block the Ca^2+ signals	0.53 µM	recovered	did not change	128 ± 8.2** mg	139 ± 10.8 mg	1.162 ± 0.128 mL	2.50 ± 0.50* mL	20.85 ± 1.29 g	No significant difference	maintained magnesium regulation	maintained kidney function	reduced	2.23 µM	2.21 µM	5.72 µM	IC50 [6]: ~2 µM; mRNA expression of inflammatory markers (TNF-α, IL-6, Cxcl10, ICAM-1, MCP-1, CRP, ET-1) in kidney ([2]; qRT-PCR, cis(+)-induced increase, FIGS. 31A-31G): significantly reduced; block of outward TRPM7 current at +40 mV [7]: blocks; block of TRPM7 current at +40 mV ([8]; 1, 3, 10 or 30 μM, 0 ATP, 0 Mg^2+): dose-dependent block; IC50 ([8]; FIG. 15, read-out: IC50 inhibition of TRPM7 currents): ~3 µM
